In patent US20170362388A1, “Disulfide Polymers and Methods of Use” (The Brigham and Women's Hospital, Inc., priority 2014, published 2017):
≈ marks a conversion by molar mass, not a printed value.

How the values were obtained:
Hela and DU145 cells = experiment: In vitro anticancer performance of docetaxel-loaded NPs, alamar blue; format: cell-based
Method: Hela, MCF-7, A549, and DU145 cells were used to evaluate in vitro anticancer performance of docetaxel-loaded NPs (Cys-OMe-8/Cys-8E NPs with 10 wt % docetaxel loaded with docetaxel concentration ranging from 1 ng/ml to 500 ng/mL). Hela, MCF-7, A549, and DU145 cells were used. Cells (5,000 cells/well) were seeded in 96-well plates the day before use, and cultured according to recommendations from ATCC. Cells were treated with different concentrations of free docetaxel or docetaxel loaded NP for 4 h or 48 h (N=5). For the 4 h experiment, treated cells were washed twice with PBS buffer and the plate was incubated for another 44 h after replacement of fresh medium. Cell viability at 48 h was determined by alamar blue assay. As a control, the polymer cytotoxicity on Hela cells was ascertained using empty NPs.
In FIGS. 24B and 24D: DU145 cells were treated with docetaxel-loaded NPs for 4 h and 48 h, respectively.
The Alamar blue assay was used to evaluate the NP cytotoxicity. Briefly, 10% 0.1 mg/mL alamar blue was first added into each well and the plate was incubated for another 2 h. Then the fluorescence intensity was measured by a microplate reader (excitation/emission=530 nm/590 nm).

[1] = tested on: A549 Human Lung Carcinoma Xenograft; experiment: Antitumor efficacy of docetaxel-loaded NPs; format: in vivo, mice; conditions: 5 mg/kg docetaxel equivalent, iv tail vein, two injections
Method: A549 cell suspension (100 μL, equivalent to 5×10^6 cells) was first mixed with 100 μL Matrigel (BD scientific Co.), then subcutaneously injected into the right flank of 5-week-old female athymic nude mice (Charles River). The treatment was initiated on the 9th day, when solid tumor reached ˜100 mm^3. Tumor-bearing mice were divided into 4 groups and injected […] on the 9th and 23rd days after tumor inoculation with: (i) 1× PBS (ii) docetaxel 5 mg/kg (MTD), (iii) Cys-OMe-8/Cys-8E NPs at a docetaxel equivalent dose of 5 mg/kg (MTD), (iv) Cys-OMe-8/Cys-8E NPs at a docetaxel equivalent dose of 10 mg/kg. Control or drugs were administered by intravenous injection in the lateral tail vein (10 μL per g of body weight). Tumor dimension and body weight were recorded every other day. Tumor volume was calculated as follows: Volume [mm^3]=[…]. Mice were regularly monitored (every other day) for physical performance and were euthanized upon exceeding 15% weight loss, over 1500 mm^3 volume or if tumor ulceration was observed. Prior to the experiment, the maximum tolerated dose (MTD) of free docetaxel was established in normal Balb/c mice at 5 mg/kg. Tumor volumes at Day 30 were compared using the ANOVA analysis.
FIG. 30 is a plot of the antitumor effects of docetaxel-loaded Cys-OMe-8/Cys-8E nanoparticles in A549 tumor bearing mice. […]

Maximum tolerated dose = conditions: mouse, in vivo; normal Balb/c mice

Compound: CC(=O)O[C@@]12CO[C@@H]1C[C@H](O)[C@@]1(C)C(=O)[C@H](O)C3=C(C)[C@@H](OC(=O)[C@H](O)[C@@H](NC(=O)OC(C)(C)C)c4ccccc4)C[C@@](O)([C@@H](OC(=O)c4ccccc4)[C@H]21)C3(C)C [docetaxel]
- IC50 (Hela and DU145 cells; 4 h treatment, viability at 48 h): ~0.1 µg/mL (≈ 0.124 µM)
- IC50 (Hela and DU145 cells; 48 h treatment): ~0.005 µg/mL (≈ 0.00619 µM)
- Tumor inhibition [1]: only limited tumor inhibition
- MTD (Maximum tolerated dose): 5 mg/kg
